As a reminder, the Papp is the rate of passage across a membrane or cell layer, normalised by area and donor concentration. A low value points to poor permeation. By half-life is commonly meant the time needed for the level to fall by half in the phase considered. High values mean slow loss, low ones fast loss. As usually defined, the IC50 is the concentration needed to halve the response being measured. The term solubility denotes how much of the substance goes into solution per volume.

Converted amounts (≈) assume the structure as drawn. Bounds are passed on as bounds.

The text below walks through data of patent US9126933B2, “Soft PDE4 inhibitors” (Amakem NV, priority 2011, dated 2015).

A short description of one series: in vitro. Particulars: PAMPA, pH 7.4. In general terms: PAMPA measures passive passage across an artificial lipid membrane.
The nature of series [1]: Stability assay in human plasma. It is filed as in vitro ADME. The following applies: 1 μM compound. How it is done:
Compounds are incubated at a concentration of 1 μM in rat (mice/rabbit/dog/rabbit) or human plasma. Samples are taken at fixed time points and the remnant of compound is determined by LC-MS/MS after protein precipitation. Half life of the compound is expressed in minutes.

A further series deals with T1, recombinant PDE4D2 (Homo sapiens, UniProt Q08499).
T1 construct: host or cells: Sf9 insect cells
T1 sequence (Q08499 303-809 limits assumed): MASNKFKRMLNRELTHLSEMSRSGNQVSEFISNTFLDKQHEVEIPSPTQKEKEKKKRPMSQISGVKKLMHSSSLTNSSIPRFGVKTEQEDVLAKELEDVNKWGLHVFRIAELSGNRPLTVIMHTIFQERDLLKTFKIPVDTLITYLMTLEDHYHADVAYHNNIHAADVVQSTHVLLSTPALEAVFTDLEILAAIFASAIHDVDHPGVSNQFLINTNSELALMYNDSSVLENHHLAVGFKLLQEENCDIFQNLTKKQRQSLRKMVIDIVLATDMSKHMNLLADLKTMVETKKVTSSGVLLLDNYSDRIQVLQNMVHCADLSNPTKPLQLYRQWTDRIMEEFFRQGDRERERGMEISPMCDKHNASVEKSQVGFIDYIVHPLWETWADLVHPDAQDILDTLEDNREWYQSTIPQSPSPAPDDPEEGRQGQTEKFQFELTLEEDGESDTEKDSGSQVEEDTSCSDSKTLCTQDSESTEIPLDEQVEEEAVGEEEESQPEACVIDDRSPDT
Description: PDE4 inhibitory activity screening, PDE4D2 (HTRF, cAMP substrate). Particulars: 40 nM cAMP, 30 minutes, room temperature. It is filed as biochemical. How it is done:
(§1) Various concentrations of the test compounds were incubated with recombinant PDE4B1 or PDE4D2 (isolated from Sf9 cells), using 40 nM cAMP as enzyme substrate. Incubation time was set to 30 minutes. The reaction was carried out at room temperature. At the end of the incubation time, residual cAMP concentration was determined, using HTRF as detection method.
(§2) The IC50 values (concentration causing a half-maximal inhibition of control specific activity) and Hill coefficients (nH) were determined by non-linear regression analysis of the inhibition curves generated with mean replicate values using Hill equation curve fitting (Y=D+[(A−D)/(1+(C/C50)nH)], where Y=specific activity, D=minimum specific activity, A=maximum specific activity, C=compound concentration, C50=IC50 and nH=slope factor).
(Time-resolved FRET reads energy transfer from a long-lived donor to a nearby acceptor.)

A short description of series [2]: Stability towards drug metabolizing enzymes in lung S9. It counts as in vitro ADME. The following applies: lung S9 (from smokers); human lung S9, 1 μM compound, cofactors NADPH, UDPGA, PAPS, GSH. How it is done: A 1 μM solution of the compounds is incubated with a reaction mixture containing lung S9 (from smokers) as well as the cofactors NADPH, UDPGA, PAPS and GSH. Samples are collected at 0, 15, 30 and 60 minutes post incubation. Negative control samples incubated with […] and S9 fraction in the absence of cofactors are run in parallel. By using LC-MS/MS analysis, the percent of compounds remaining at each time point, the metabolic half-life of the compounds (expressed in minutes) and the metabolic half-life of the control compounds are determined.

A short description of series [3]: Membrane permeability, Pampa assay. Particulars: for Papp (Pampa; 10^−6 cm/s): 10 μM in 10 mM PBS pH=7.4, 2% DMSO, 5 hours, room temperature.
Description: (§3) The capacity of compounds of the invention to cross a lipophilic membrane was evaluated in a Pampa assay, using an assay plate containing structured layers of phospholipids supported on a PVDF filter (Benton Dickinson). […] Each compound was tested in triplicate and was prepared as a 10 μM solution in 10 mM PBS pH=7.4 buffer containing 2% DMSO. Compounds were dosed in the donor chamber of the assay plate and incubated for 5 hours, at room temperature. Additionally, an equilibrium solution plate containing 6 μM of test compound was prepared. Test compound concentration in donor and acceptor chamber and in the equilibrium plate was quantified using HPLC-MS/MS. The subsequently calculated permeability coefficients were reported as Papp.
Series [4] is described as follows: Solubility in aqueous solution (PBS pH 7.4). It is filed as physicochemical. Particulars: phosphate buffer saline (PBS), pH 7.4, aqueous buffer, kinetic from dmso stock; PBS pH7.4, 24 h, room temperature, theoretical concentration 200 μM. As for the experimental part: Using a 10 mM stock solution of each compound in 100% DMSO, dilutions were prepared to a theoretical concentration of 200 μM in both phosphate buffer saline (PBS), pH7.4 and in 100% DMSO (as reference). Solutions (triplicates) were incubated at room temperature for 24 h on a shaker at 100 rpm. The solutions were then centrifugated at 13000 rpm for 30 min and the supernatant was further diluted to 2 μM in methanol. The supernatant was then analyzed by LC-MSMS. The concentration of compound in PBS supernatant was determined by comparing the MS peak area with that of the reference solution in DMSO.

Another series concerns the target T2, recombinant PDE4B1 (Homo sapiens, UniProt Q07343).
T2 construct: host or cells: Sf9 insect cells
Briefly: PDE4 inhibitory activity screening, PDE4B1 (HTRF, cAMP substrate). It counts as biochemical. Particulars: 40 nM cAMP, 30 minutes, room temperature. How it is done:
as §1, §2

T2 sequence (Q07343 whole entry): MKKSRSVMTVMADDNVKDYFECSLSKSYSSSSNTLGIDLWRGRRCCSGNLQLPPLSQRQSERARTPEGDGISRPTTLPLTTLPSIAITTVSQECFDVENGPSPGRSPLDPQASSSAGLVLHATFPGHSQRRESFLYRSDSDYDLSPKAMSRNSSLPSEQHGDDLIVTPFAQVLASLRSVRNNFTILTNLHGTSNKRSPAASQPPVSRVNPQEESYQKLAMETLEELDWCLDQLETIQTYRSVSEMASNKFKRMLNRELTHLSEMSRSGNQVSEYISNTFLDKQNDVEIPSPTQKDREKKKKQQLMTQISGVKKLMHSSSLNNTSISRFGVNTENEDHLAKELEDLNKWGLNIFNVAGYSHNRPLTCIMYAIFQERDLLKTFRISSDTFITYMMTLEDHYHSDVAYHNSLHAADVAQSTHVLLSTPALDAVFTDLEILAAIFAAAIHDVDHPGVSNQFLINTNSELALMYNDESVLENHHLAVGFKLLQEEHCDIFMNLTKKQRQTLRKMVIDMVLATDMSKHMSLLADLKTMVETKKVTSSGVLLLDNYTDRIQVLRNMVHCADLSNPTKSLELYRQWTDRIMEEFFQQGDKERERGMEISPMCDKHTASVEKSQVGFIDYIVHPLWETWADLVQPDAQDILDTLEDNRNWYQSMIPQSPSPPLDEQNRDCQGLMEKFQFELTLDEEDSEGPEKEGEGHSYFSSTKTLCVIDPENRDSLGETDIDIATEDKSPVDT
Description for in vitro: as §3

Compound `CC(C)NCC(O)COc1cccc2ccccc12` (centres unmarked) [Propranolol] returned a Papp at 5 h, 10 μM in the series “in vitro” of 9.5 ×10⁻⁶ cm/s.

On to `O=C(Nc1c(Cl)cncc1Cl)c1ccc(OC(F)F)c(OCCCCSC2CCOC2=O)c1` (centres unmarked) [Compound 12, N-(3,5-dichloropyridin-4-yl)-4-(difluoromethoxy)-3-{4-[(2-oxotetrahydrofuran-3-yl)thio]butoxy}benzamide], for which the results for the half-life at 1 μM in series [1] and in series [2] were under 15 min and over 60 min, respectively. Besides, the IC50 at recombinant PDE4D2 and at recombinant PDE4B1 was under 10 nM each time. In series [3], the “Papp (Pampa; 10^−6 cm/s)” value is listed as 2.5 10^−6 cm/s. In series [4], this compound yielded a solubility at 24 h of 10 to 100 µM (≈ 5.21 to 52.1 µg/mL).

Take `O=C(Nc1c(Cl)cncc1Cl)c1ccc(OC(F)F)c(OCCCNC2CCOC2=O)c1` (centres unmarked) [Compound 14]: the half-life at 1 μM in series [1] was under 15 min; in series [2], over 60 min. Also, the IC50 is 10 to 100 nM at recombinant PDE4D2 and under 10 nM on recombinant PDE4B1. In addition, in series [3], the “Papp (Pampa; 10^−6 cm/s)” value was 7.3 10^−6 cm/s. The compound also displayed a solubility at 24 h in series [4] of 10 to 100 µM (≈ 4.9 to 49 µg/mL).

In the series “in vitro”, `COC(=O)[C@H]1[C@H]2C[C@@H]3c4[nH]c5cc(OC)ccc5c4CCN3C[C@H]2C[C@@H](OC(=O)c2cc(OC)c(OC)c(OC)c2)[C@@H]1OC` [Reserpine] came in with a Papp at 5 h, 10 μM of 0.008 ×10⁻⁶ cm/s.

As for `O=C(Nc1c(Cl)cncc1Cl)c1ccc(OC(F)F)c(OCCCCNC2CCOC2=O)c1` (centres unmarked) [Compound 11, N-(3,5-dichloropyridin-4-yl)-4-(difluoromethoxy)-3-{4-[(2-oxotetrahydrofuran-3-yl)amino]butoxy}benzamide], the half-life at 1 μM was under 15 min in series [1] and over 60 min in series [2]. Further, the IC50 on recombinant PDE4D2 and at recombinant PDE4B1 was under 10 nM throughout. The same compound came in with a Papp at 5 h, 10 μM in series [3] (PAMPA, pH 7.4) of 5 ×10⁻⁶ cm/s. In series [4], this compound registered a solubility at 24 h of 10 to 100 µM (≈ 5.04 to 50.4 µg/mL).
